# Reference: patent publication EP0642531B1, “MONOMER AND DIMER PEPTIDES, UTILIZATION AS CYTOPROTECTOR AGENTS AND PREPARATION METHOD” (INSTITUT DES VAISSEAUX ET DU SANG, priority 1992, dated 1997)
# Where no end group is shown, it is not given here.
# Key:
# [1] = tested on: mégacaryocytopoièse humaine; conditions: cited from earlier work
# CAM de poulet = conditions: inhibition of angiogenesis in chicken CAM; cited from earlier work
# cellules HEL = conditions: prior-art comparators; cited from earlier work
# [2] = tested on: mégacaryocytopoïèse in vivo; assay: Megakaryocytopoiesis in vivo in normal mice (marrow and blood counts); conditions: souris Balb/c, 40 µg/kg s.c. twice daily for 4 days, sampled day 2 after last injection; mean ± SEM
# Description: L'effet du dodécapeptide de l'exemple 1 sur la mégacaryocytopoïèse in vivo a été testé sur des souris normales selon une méthode décrite par HAN et al., dans l'article C.R. Acad. Sci. Paris, (1991), 313, Série III, 553-558 précité. Chaque groupe contient 5-10 souris Balb/c. Le peptide est injecté par voie sous-cutanée deux fois par jour pendant 4 jours aux concentrations de 1 µg et 5 µg par souris pour chaque administration. Les échantillons de moëlle et/ou de sang ont été prélevés au jour J2 qui suit la dernière injection.
# Les souris ont été tuées par dislocation cervicale. Les cellules médullaires ont été obtenues à partir des fémurs et le sang a été obtenu par ponction cardiaque. Les cellules médullaires à la concentration de 2 x 10^5 cellules mononucléées par ml ont été remises en culture en cinq exemplaires en présence de sérum de porc aplasique pendant une semaine pour tester le nombre de progéniteurs mégacaryocytaires (CFU-MK). Le nombre des mégacaryocytes a été évalué sur des cellules médullaires non cultivées mais ensemencées dans des boîtes de culture après obtention à partir des fémurs. Le nombre de plaquettes, de globules blancs et le taux d'hémoglobine ont été mesurés en utilisant un compteur hématopoiétique automatique. […]
substance,measurement,setting,value
"C-13: peptide constitué par les 13 derniers aminoacides (i.e. 58-70) de l'extrémité C-terminale du pF4 (PLYKKIIKKLLES; Platelet factor 4; UniProt P02776 89-101, looked up, fragment)",effet sur la mégacaryocytopoïèse,[1]; in vitro,aucun effet
same,anti-angiogénèse,CAM de poulet,propriétés anti-angiogénèse
"C-24: peptide constitué par les 24 derniers aminoacides (i.e. 47-70) de l'extrémité C-terminale du pF4 (NGRKICLDLQAPLYKKIIKKLLES; Platelet factor 4; UniProt P02776 78-101, looked up, fragment)",maturation des cellules HEL,cellules HEL,limitent la maturation
same,prolifération des cellules HEL,cellules HEL,n'agissent pas sur leur prolifération
same,dose inhibiting mégacaryocytopoièse humaine in vitro,[1]; relatively high dose,~25 µg/mL
"C-41: peptide constitué par les 41 derniers aminoacides (i.e. 30-70) de l'extrémité C-terminale du pF4 (IKAGPHCPTAQLIATLKNGRKICLDLQAPLYKKIIKKLLES; Platelet factor 4; UniProt P02776 61-101, looked up, fragment)",anti-angiogénèse,CAM de poulet,propriétés anti-angiogénèse
NGRKICLDLEAP [exemple 1],Sang H (hémoglobine),[2],"15,2±0,8 g/100 ml"
same,Sang L (leucocytes),[2],"2,80±0,4 10^3/µl"
